Assay results taken from the kinase profiling compilation of Christmann-Franck et al. (2016).
Values joined by “and” are separate entries in the source; they are usually repeats but may differ in a detail not shown here. Equal entries are not always repeated.

Legend:
Assay in all cases: Caliper, Mobility shift assay off-chip
[1] = test system: ABL1 (human), P00519 [Q252H]
FYN (human) = FYN (human) (UniProt P06241)
RPS6KB1 (human) = RPS6KB1 (human) (UniProt P23443)
PRKCB2 (human) = PRKCB2 (human) (UniProt P05771)
PRKCH (human) = PRKCH (human) (UniProt P24723)
Sequence of PRKCH (human) (P24723 whole entry, looked up): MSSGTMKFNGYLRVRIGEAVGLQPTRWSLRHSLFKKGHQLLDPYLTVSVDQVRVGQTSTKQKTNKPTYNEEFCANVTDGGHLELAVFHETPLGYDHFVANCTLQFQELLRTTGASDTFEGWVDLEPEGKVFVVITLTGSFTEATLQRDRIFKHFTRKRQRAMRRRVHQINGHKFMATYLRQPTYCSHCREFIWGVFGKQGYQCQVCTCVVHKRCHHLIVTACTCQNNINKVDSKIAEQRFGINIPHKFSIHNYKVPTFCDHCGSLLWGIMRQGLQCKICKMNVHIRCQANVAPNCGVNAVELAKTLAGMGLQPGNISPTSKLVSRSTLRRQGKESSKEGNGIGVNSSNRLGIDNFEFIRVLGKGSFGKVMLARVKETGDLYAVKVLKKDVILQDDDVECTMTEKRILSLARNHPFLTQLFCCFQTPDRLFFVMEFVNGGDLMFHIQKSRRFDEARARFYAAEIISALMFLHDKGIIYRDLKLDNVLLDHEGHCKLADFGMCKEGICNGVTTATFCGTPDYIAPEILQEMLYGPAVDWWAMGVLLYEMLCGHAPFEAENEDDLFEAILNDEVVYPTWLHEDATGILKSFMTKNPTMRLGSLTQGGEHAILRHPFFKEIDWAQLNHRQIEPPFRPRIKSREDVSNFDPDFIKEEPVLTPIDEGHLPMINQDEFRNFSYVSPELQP

MARK1 (human) = MARK1 (human) (UniProt Q9P0L2)
Sequence of MARK1 (human) (Q9P0L2 whole entry, looked up): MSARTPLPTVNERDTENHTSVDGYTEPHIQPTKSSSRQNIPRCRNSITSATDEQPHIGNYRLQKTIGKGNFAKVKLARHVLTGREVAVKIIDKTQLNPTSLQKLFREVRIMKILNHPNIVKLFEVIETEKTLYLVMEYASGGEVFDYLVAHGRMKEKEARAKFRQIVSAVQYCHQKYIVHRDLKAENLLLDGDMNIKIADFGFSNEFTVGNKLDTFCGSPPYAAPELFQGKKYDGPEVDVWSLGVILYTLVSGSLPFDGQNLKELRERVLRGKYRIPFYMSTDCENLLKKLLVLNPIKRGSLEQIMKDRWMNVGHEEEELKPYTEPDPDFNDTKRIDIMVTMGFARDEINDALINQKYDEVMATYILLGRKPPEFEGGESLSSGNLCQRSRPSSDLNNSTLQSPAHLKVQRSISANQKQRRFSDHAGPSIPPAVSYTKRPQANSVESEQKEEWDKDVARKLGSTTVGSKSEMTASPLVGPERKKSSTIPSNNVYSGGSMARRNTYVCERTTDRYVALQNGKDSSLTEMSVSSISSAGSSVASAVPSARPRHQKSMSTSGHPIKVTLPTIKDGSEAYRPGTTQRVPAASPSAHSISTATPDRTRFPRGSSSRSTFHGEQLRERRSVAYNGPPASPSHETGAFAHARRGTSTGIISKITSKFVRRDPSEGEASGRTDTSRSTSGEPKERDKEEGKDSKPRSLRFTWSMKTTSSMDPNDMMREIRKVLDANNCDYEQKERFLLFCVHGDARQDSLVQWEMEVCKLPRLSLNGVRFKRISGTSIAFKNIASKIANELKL

CSNK1A1 (human) = CSNK1A1 (human) (UniProt P48729)
PRKG1 (human) = PRKG1 (human) (UniProt Q13976)
Sequence of PRKG1 (human) (Q13976 whole entry, looked up): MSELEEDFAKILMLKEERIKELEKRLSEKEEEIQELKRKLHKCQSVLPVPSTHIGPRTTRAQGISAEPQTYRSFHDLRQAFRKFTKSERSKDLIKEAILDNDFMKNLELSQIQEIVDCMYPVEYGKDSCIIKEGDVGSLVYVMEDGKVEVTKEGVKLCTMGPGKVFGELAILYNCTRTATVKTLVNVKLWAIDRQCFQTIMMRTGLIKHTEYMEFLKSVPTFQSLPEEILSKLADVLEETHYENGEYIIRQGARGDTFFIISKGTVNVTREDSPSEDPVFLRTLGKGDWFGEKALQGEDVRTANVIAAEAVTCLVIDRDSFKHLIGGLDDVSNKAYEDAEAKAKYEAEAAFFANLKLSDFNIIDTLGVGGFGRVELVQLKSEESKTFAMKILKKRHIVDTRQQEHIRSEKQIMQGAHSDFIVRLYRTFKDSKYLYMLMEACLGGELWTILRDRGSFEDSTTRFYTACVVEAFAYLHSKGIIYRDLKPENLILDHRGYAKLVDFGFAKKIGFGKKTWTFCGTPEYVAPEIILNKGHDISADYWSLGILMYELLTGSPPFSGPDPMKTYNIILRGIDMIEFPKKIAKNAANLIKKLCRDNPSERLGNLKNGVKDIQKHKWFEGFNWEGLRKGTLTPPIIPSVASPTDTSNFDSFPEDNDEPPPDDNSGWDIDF

FGFR4 (human) = FGFR4 (human) (UniProt P22455)
PRKCQ (human) = PRKCQ (human) (UniProt Q04759); details: compound 0.1 µM
FER (human) = FER (human) (UniProt P16591)
MAPKAPK2 (human) = MAPKAPK2 (human) (UniProt P49137)
IGF1R (human) = IGF1R (human) (UniProt P08069)
Sequence of IGF1R (human) (P08069 whole entry, looked up): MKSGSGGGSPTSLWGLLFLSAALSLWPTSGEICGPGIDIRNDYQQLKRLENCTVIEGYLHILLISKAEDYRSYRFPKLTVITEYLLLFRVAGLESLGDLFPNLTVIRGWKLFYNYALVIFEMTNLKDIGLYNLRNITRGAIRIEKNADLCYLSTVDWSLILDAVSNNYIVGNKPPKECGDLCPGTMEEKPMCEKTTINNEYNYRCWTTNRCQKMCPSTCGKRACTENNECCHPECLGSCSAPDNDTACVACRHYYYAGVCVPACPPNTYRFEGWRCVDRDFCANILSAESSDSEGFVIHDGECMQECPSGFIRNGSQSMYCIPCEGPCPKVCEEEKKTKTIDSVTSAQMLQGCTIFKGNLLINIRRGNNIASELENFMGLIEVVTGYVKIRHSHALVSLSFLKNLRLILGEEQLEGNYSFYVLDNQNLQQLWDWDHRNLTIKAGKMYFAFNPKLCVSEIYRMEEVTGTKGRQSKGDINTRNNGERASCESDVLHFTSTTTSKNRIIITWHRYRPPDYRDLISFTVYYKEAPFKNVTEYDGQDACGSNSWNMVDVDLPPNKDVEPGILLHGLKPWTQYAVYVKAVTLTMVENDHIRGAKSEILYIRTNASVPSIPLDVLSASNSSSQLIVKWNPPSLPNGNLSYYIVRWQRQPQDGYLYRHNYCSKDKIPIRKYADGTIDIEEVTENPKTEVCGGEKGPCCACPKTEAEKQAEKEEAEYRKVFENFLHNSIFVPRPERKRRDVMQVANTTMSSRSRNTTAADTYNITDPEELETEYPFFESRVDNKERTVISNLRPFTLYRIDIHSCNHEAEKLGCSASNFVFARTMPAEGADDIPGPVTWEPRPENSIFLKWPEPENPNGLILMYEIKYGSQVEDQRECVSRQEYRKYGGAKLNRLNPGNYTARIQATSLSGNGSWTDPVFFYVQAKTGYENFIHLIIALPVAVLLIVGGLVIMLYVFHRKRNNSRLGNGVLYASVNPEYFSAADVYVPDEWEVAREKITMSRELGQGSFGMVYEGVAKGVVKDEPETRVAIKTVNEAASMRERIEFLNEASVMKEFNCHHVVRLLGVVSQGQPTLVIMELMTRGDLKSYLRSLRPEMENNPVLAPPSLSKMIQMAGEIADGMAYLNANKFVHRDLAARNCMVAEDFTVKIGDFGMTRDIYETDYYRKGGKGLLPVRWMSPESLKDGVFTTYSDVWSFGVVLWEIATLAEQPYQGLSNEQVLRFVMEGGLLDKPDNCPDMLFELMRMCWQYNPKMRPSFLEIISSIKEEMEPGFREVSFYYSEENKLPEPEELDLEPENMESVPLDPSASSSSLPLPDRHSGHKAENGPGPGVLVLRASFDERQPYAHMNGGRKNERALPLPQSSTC

BMX (human) = BMX (human) (UniProt P51813); details: compound 0.1 µM
PRKCA (human) = PRKCA (human) (UniProt P17252); details: compound 0.1 µM
SGK1 (human) = SGK1 (human) (UniProt O00141)
MARK3 (human) = MARK3 (human) (UniProt P27448)
Sequence of MARK3 (human) (P27448 whole entry, looked up): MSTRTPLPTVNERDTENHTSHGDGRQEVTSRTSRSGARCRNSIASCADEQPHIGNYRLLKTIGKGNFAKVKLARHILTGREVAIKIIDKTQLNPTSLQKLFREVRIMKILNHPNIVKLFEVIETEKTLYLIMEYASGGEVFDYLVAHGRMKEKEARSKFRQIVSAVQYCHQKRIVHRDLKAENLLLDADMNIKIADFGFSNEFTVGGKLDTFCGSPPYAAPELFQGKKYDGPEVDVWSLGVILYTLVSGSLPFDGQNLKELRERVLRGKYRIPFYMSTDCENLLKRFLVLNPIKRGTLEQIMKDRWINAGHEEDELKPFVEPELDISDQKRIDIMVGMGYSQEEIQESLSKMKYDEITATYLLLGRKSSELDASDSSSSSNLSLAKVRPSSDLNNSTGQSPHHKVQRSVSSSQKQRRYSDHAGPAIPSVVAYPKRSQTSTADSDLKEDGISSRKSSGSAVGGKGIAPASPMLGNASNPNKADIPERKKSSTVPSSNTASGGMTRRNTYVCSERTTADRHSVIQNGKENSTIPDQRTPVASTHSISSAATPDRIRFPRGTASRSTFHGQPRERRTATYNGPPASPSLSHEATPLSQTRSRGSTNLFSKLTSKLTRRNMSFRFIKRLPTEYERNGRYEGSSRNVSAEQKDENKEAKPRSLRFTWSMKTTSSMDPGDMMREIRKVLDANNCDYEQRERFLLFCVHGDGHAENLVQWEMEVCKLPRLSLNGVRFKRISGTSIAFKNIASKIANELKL

RPS6KA4 KD1 KD2 (human) = RPS6KA4 KD1 KD2 (human) (UniProt O75676); details: compound 0.1 µM
PRKD1 (human) = PRKD1 (human) (UniProt Q15139)
MAPK14 (human) = MAPK14 (human) (UniProt Q16539)
Sequence of MAPK14 (human) (Q16539 whole entry, looked up): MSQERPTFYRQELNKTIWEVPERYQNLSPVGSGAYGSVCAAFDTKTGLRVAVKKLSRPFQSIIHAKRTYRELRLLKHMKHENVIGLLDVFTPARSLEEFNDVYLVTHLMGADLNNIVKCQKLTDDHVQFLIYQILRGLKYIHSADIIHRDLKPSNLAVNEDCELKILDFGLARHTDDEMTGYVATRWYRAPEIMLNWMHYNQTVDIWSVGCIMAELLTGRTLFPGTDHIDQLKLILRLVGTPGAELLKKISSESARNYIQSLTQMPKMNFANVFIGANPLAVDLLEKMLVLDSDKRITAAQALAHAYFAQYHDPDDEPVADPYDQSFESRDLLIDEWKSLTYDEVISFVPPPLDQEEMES

PRKCZ (human) = PRKCZ (human) (UniProt Q05513)
BRSK1 (human) = BRSK1 (human) (UniProt Q8TDC3)
RPS6KA5 KD1 KD2 (human) = RPS6KA5 KD1 KD2 (human) (UniProt O75582)
SGK3 (human) = SGK3 (human) (UniProt Q96BR1)
AURKA (human) = AURKA (human) (UniProt O14965)
EGFR (human) = EGFR (human) (UniProt P00533)
AKT3 (human) = AKT3 (human) (UniProt Q9Y243)
PRKCG (human) = PRKCG (human) (UniProt P05129); details: compound 0.1 µM
SGK2 (human) = SGK2 (human) (UniProt Q9HBY8)
CSNK1D (human) = CSNK1D (human) (UniProt P48730)
Sequence of CSNK1D (human) (P48730 whole entry, looked up): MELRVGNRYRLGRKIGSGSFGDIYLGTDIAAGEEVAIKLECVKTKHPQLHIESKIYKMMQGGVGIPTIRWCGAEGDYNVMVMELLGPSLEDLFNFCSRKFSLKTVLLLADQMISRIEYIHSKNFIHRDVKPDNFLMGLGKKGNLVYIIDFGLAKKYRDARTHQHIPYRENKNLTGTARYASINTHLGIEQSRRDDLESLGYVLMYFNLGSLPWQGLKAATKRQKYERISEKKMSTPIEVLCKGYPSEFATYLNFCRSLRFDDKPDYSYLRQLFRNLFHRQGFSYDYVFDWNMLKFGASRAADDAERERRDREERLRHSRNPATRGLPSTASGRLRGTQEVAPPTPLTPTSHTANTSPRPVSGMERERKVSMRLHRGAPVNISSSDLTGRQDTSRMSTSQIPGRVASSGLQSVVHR

CAMK2G (human) = CAMK2G (human) (UniProt Q13555)
ABL1 (human) = ABL1 (human) (UniProt P00519)
MAPK3 (human) = MAPK3 (human) (UniProt P27361)

Compound `Cn1cc(-c2cnc3ccc4ccc(CS(N)(=O)=O)cc4c(=O)c3c2)cn1` has an inhibition ([1]; compound 0.1 µM) of -0.1%, an inhibition ([1]; compound 1.0 µM) of 24.9% and an inhibition (FYN (human); compound 0.1 µM) of -3.7%. The inhibition (FYN (human); compound 1.0 µM) was 6%, the inhibition (RPS6KB1 (human); compound 0.1 µM) was 10% and the inhibition (RPS6KB1 (human); compound 1.0 µM) was 13.5%. The inhibition (PRKCB2 (human); compound 0.1 µM) was 2.6%, the inhibition (PRKCB2 (human); compound 1.0 µM) was -6% and the inhibition (PRKCH (human); compound 0.1 µM) was -6.7%. It also gave an inhibition (PRKCH (human); compound 1.0 µM) of 0.2%, an inhibition (MARK1 (human); compound 0.1 µM) of 16.5% and an inhibition (MARK1 (human); compound 1.0 µM) of 81.8%. The inhibition (CSNK1A1 (human); compound 0.1 µM) was -2.8%, the inhibition (CSNK1A1 (human); compound 1.0 µM) was -4.1% and the inhibition (PRKG1 (human); compound 0.1 µM) was -0.5% and 2.6%. The inhibition (PRKG1 (human); compound 1.0 µM) was 9.6% and -5.9%, the inhibition (FGFR4 (human); compound 0.1 µM) was 21.1% and the inhibition (FGFR4 (human); compound 1.0 µM) was 19.6%. It also gave an inhibition (PRKCQ (human)) of 5.2%, an inhibition (FER (human); compound 0.1 µM) of -53.2% and an inhibition (FER (human); compound 1.0 µM) of -24.2%. The inhibition (MAPKAPK2 (human); compound 0.1 µM) was -2.6%, the inhibition (MAPKAPK2 (human); compound 1.0 µM) was 8% and the inhibition (IGF1R (human); compound 0.1 µM) was -3.7%. It also gave an inhibition (IGF1R (human); compound 1.0 µM) of 1.8%, an inhibition (BMX (human)) of 1.6% and an inhibition (PRKCA (human)) of 3.1%. For the same compound, the inhibition (SGK1 (human); compound 0.1 µM) was 6.8%, the inhibition (SGK1 (human); compound 1.0 µM) was 11.5% and the inhibition (MARK3 (human); compound 0.1 µM) was -2.4%. The inhibition (MARK3 (human); compound 1.0 µM) was -3.3%, the inhibition (RPS6KA4 KD1 KD2 (human)) was 15.2% and the inhibition (PRKD1 (human); compound 0.1 µM) was -5.2%. For the same compound, the inhibition (PRKD1 (human); compound 1.0 µM) was 0.2%, the inhibition (MAPK14 (human); compound 0.1 µM) was -13.9% and the inhibition (MAPK14 (human); compound 1.0 µM) was 6.9%. For the same compound, the inhibition (PRKCZ (human); compound 0.1 µM) was -6.7%, the inhibition (PRKCZ (human); compound 1.0 µM) was 1% and the inhibition (BRSK1 (human); compound 0.1 µM) was 5.6%. The inhibition (BRSK1 (human); compound 1.0 µM) was 12.5%, the inhibition (RPS6KA5 KD1 KD2 (human); compound 0.1 µM) was 8% and the inhibition (RPS6KA5 KD1 KD2 (human); compound 1.0 µM) was 4.1%. For the same compound, the inhibition (SGK3 (human); compound 0.1 µM) was -1.4%, the inhibition (SGK3 (human); compound 1.0 µM) was 3.9% and the inhibition (AURKA (human); compound 0.1 µM) was 27.6%. For the same compound, the inhibition (AURKA (human); compound 1.0 µM) was 75.5%, the inhibition (EGFR (human); compound 0.1 µM) was 13.3% and the inhibition (EGFR (human); compound 1.0 µM) was 9.2%. The inhibition (AKT3 (human); compound 0.1 µM) was 3.1%, the inhibition (AKT3 (human); compound 1.0 µM) was 3.13% and the inhibition (PRKCG (human)) was -1.4%. It also gave an inhibition (SGK2 (human); compound 0.1 µM) of -0.9%, an inhibition (SGK2 (human); compound 1.0 µM) of 23.1% and an inhibition (CSNK1D (human); compound 0.1 µM) of 7.6%. The inhibition (CSNK1D (human); compound 1.0 µM) was 11.1%, the inhibition (CAMK2G (human); compound 0.1 µM) was -17.9% and the inhibition (CAMK2G (human); compound 1.0 µM) was -1.6%. It also gave an inhibition (ABL1 (human); compound 0.1 µM) of 6.9%, an inhibition (ABL1 (human); compound 1.0 µM) of 22.9% and an inhibition (MAPK3 (human); compound 0.1 µM) of -0.7%. For the same compound, the inhibition (MAPK3 (human); compound 1.0 µM) was 3.6%.
